Reference: patent US20130158072A1, “KAPPA OPIOID RECEPTOR BINDING LIGANDS” (Research Triangle Institute, priority 2010, published 2013)
Entries after “also recorded” stand apart in the source; their conditions may differ. Structures can show the parent of a compound that is named as a salt. Marks after values point to notes of the source that are not given here.

What was measured:
rodents = conditions: forced-swim, elevated plus maze, fear-potentiated startle; cited from earlier work
[1] = molecular target: T1, cloned human κ-opioid receptor (Homo sapiens, UniProt P41145); assay: Inhibition of U69,593-stimulated [35S]GTPγS binding; conditions: for κ, U69,593 Ke / κ, U69,593 Ke (nM): antagonism of U69,593-stimulated [35S]GTPγS binding, CHO cells, means ± SE, at least three experiments; for δ/κ / μ/κ: ratio of Ke values; for δ/κ: κ selectivity relative to δ; for μ/κ: κ selectivity relative to μ
Procedure: (§1) Test compound assay concentrations ranged from 1-5000 nM, depending on their activity. The Ke values were calculated using the formula: Ke=[L]/DR−1, where [L] is the concentration of test compound and DR is the ratio of agonist EC50 value in the presence or absence of test compound, respectively.

[2] = molecular target: T1, cloned human κ-opioid receptor; design: expressed in transfected cells; host or cells: CHO cells; conditions: previously reported; cited from earlier work
rats = conditions: oral; cited from earlier work
mice = conditions: oral; cited from earlier work
[3] = molecular target: T2, cloned human μ-opioid receptor (Homo sapiens, UniProt P35372); assay: Intrinsic activity in the [35S]GTPγS binding assay; format: biochemical; conditions: at 10 μM
T2 construct: expressed in transfected cells; host or cells: CHO cells
Procedure: as §1

κ-opioid receptor = conditions: in vivo, compared with other κ-opioid antagonists; cited from earlier work
[4] = molecular target: T3, cloned human δ-opioid receptor (Homo sapiens, UniProt P41143); assay: Intrinsic activity in the [35S]GTPγS binding assay; format: biochemical; conditions: at 10 μM
T3 construct: expressed in transfected cells; host or cells: CHO cells
Procedure: as §1

[5] = molecular target: T1, cloned human κ-opioid receptor; assay: Intrinsic activity in the [35S]GTPγS binding assay; format: biochemical; design: expressed in transfected cells; host or cells: CHO cells; conditions: at 10 μM
Procedure: as §1

[6] = molecular target: T2, cloned human μ-opioid receptor; assay: Inhibition of DAMGO-stimulated [35S]GTPγS binding; format: biochemical; conditions: for potency at μ receptors compared to 3: compared with 3
Procedure: as §1

[7] = molecular target: T3, cloned human δ-opioid receptor; assay: Inhibition of DPDPE-stimulated [35S]GTPγS binding; format: biochemical; conditions: antagonism of DPDPE-stimulated [35S]GTPγS binding, CHO cells; means ± SE, at least three experiments
Procedure: as §1

[8] = antagonism of DAMGO-stimulated [35S]GTPγS binding, CHO cells, means ± SE, at least three experiments

T3 sequence (P41143 whole entry): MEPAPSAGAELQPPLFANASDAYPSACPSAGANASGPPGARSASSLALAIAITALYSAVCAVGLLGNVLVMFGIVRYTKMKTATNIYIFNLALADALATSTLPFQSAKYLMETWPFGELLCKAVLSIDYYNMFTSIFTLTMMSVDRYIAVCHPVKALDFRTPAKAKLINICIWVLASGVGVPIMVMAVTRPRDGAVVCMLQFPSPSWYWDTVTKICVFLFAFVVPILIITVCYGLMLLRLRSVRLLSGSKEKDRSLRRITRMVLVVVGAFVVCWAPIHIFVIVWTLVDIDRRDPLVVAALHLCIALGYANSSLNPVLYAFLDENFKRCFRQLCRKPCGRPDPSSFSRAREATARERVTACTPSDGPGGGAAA
T2 sequence (P35372 whole entry): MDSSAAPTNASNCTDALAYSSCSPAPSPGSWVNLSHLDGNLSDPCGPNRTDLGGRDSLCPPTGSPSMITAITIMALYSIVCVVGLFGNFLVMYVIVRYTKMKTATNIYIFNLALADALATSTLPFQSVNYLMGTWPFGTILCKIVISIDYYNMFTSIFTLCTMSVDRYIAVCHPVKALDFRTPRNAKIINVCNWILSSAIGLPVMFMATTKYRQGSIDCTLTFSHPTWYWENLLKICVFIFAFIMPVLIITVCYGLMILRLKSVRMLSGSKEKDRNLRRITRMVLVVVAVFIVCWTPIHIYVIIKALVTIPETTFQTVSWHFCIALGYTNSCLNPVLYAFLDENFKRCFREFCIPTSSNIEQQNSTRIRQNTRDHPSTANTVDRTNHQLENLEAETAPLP
T1 sequence (P41145 whole entry): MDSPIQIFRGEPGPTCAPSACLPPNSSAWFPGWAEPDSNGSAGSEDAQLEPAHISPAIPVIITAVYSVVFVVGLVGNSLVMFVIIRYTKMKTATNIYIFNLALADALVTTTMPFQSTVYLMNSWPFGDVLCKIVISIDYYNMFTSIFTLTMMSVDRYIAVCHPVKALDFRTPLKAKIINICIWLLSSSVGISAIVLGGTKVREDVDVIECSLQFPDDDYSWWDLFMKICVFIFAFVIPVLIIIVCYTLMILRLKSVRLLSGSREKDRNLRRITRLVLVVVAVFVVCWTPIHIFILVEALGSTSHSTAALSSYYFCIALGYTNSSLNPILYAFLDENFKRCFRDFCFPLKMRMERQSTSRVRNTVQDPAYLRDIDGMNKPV

## COc1cccc([C@]2(C)CCN(C[C@@H](NC(=O)[C@H]3Cc4ccc(O)cc4CN3)C(C)C)C[C@@H]2C)c1 (as salt: hydrochloride) [Compound 8d, (3R)-7-Hydroxy-N-[(1S)-1-{[(3R,4R)-4-(3-methoxyphenyl)-3,4-dimethylpiperidin-1-yl]methyl}-2-methylpropyl]-1,2,3,4-tetrahydroisoquinoline-3-carboxamide]
other
  melting point: > 220 °C (dec.)

## CC[C@H](C)[C@@H](CN1CC[C@@](C)(c2cccc(OC)c2)[C@@H](C)C1)NC(=O)[C@H]1Cc2ccc(O)cc2CN1 (as salt: hydrochloride) [Compound 8f, (3R)-7-Hydroxy-N-[(1S,2S)-1-{[(3R,4R)-4-(3-methoxyphenyl)-3,4-dimethylpiperidin-1-yl]methyl}-2-methylbutanyl]-1,2,3,4-tetrahydroisoquinoline-3-carboxamide]
other
  melting point: > 220 °C (dec.)

## COc1cccc([C@]2(C)CCN(C[C@@H](NC(=O)[C@@]3(C)Cc4ccc(O)cc4CN3)C(C)C)C[C@@H]2C)c1 (as salt: hydrochloride) [Compound 8h, (3R)-7-Hydroxy-N-[(1S)-1-{[(3R,4R)-4-(3-methoxyphenyl)-3,4-dimethylpiperidin-1-yl]methyl}-2-methylpropyl]-3-methyl-1,2,3,4-tetrahydroisoquinoline-3-carboxamide]
other
  melting point: > 220 °C (dec.)

## CC[C@H](C)[C@@H](CN1CC[C@@](C)(c2cccc(O)c2)[C@@H](C)C1)NC(=O)[C@@]1(C)Cc2ccc(O)cc2CN1 (as salt: hydrochloride) [Compound 8i, (3R)-7-Hydroxy-N-[(1S,2S)-1-{[(3R,4R)-4-(3-hydroxyphenyl)-3,4-dimethylpiperidin-1-yl]methyl}-2-methylbutanyl]-3-methyl-1,2,3,4-tetrahydroisoquinoline-3-carboxamide]
other
  melting point: > 220 °C (dec.)

## CC[C@H](C)[C@@H](CN1CC[C@@](C)(c2cccc(O)c2)[C@@H](C)C1)NC(=O)[C@H]1Cc2ccc(O)cc2CN1C (as salt: hydrochloride) [Compound 8j, (3R)-7-Hydroxy-N-[(1S,2S)-1-{[(3R,4R)-4-(3-hydroxyphenyl)-3,4-dimethylpiperidin-1-yl]methyl}-2-methylbutanyl]-2-methyl-1,2,3,4-tetrahydroisoquinoline-3-carboxamide]
other
  melting point: 180 °C (dec.)

## COc1cccc([C@]2(C)CCN(C[C@@H](NC(=O)[C@H]3Cc4ccc(O)cc4CN3C)C(C)C)C[C@@H]2C)c1 (as salt: hydrochloride) [Compound 8k, (3R)-7-Hydroxy-N-[(1S)-1-{[(3R,4R)-4-(3-methoxyphenyl)-3,4-dimethylpiperidin-1-yl]methyl}-2-methylpropyl]-2-methyl-1,2,3,4-tetrahydroisoquinoline-3-carboxamide]
other
  melting point: 210 to 215 °C (dec.)

## COc1cccc([C@]2(C)CCN(C[C@@H](NC(=O)[C@@]3(C)Cc4ccc(OC)cc4CN3)C(C)C)C[C@@H]2C)c1 (as salt: hydrochloride) [Compound 8l, (3R)-7-Methoxy-N-[(1S)-1-{[(3R,4R)-4-(3-methoxyphenyl)-3,4-dimethylpiperidin-1-yl]methyl}-2-methylpropyl]-3-methyl-1,2,3,4-tetrahydroisoquinoline-3-carboxamide]
other
  melting point: > 220 °C (dec.)

## CC[C@H](C)[C@@H](CN1CC[C@@](C)(c2cccc(OC)c2)[C@@H](C)C1)NC(=O)[C@@]1(C)Cc2ccc(O)cc2CN1 (as salt: hydrochloride) [Compound 8n, (3R)-7-Hydroxy-N-[(1S,2S)-1-{[(3R,4R)-4-(3-methoxyphenyl)-3,4-dimethylpiperidin-1-yl]methyl}-2-methylbutanyl)-3-methyl-1,2,3,4-tetrahydroisoquinoline-3-carboxamide]
other
  melting point: 210 °C (dec.)

## COc1ccc2c(c1)CN(C)[C@@](C)(C(=O)N[C@H](CN1CC[C@@](C)(c3cccc(O)c3)[C@@H](C)C1)C(C)C)C2 (as salt: hydrochloride) [Compound 8o, (3R)-7-Methoxy-N-[(1S)-1-{[(3R,4R)-4-(3-hydroxyphenyl)-3,4-dimethylpiperidin-1-yl]methyl}-2-methylpropyl]-2,3-dimethyl-1,2,3,4-tetrahydroisoquinoline-3-carboxamide]
other
  melting point: 199 °C (dec.)

## CC[C@H](C)[C@@H](CN1CC[C@@](C)(c2cccc(OC)c2)[C@@H](C)C1)NC(=O)[C@H]1Cc2ccc(O)cc2CN1C (as salt: hydrochloride) [Compound 8p, (3R)-7-Hydroxy-N-[(1S,2S)-1-{[(3R,4R)-4-(3-methoxyphenyl)-3,4-dimethylpiperidin-1-yl]methyl}-2-methylbutanyl]-2-methyl-1,2,3,4-tetrahydroisoquinoline-3-carboxamide]
other
  melting point: 180 °C (dec.)

## Oc1ccc2c3c1O[C@H]1c4[nH]c5c(c4C[C@@]4(O)[C@@H](C2)N(CC2CC2)CC[C@]314)C[C@@]1(O)[C@H]2Cc3ccc(O)c4c3[C@@]1(CCN2CC1CC1)[C@H]5O4 [Compound 1, nor-BNI]
rodents
  fear and stress-induced responses: dose-dependently reduce fear and stress-induced responses

## CC(C)[C@@H](CN1CC[C@@](C)(c2cccc(O)c2)[C@@H](C)C1)NC(=O)[C@H]1Cc2ccc(O)cc2CN1 [Compound 3, (3R)-7-hydroxy-N-((1S)-1-{[(3R,4R)-4-(3-hydroxyphenyl)-3,4-dimethyl-1-piperidinyl]methyl}-2-methylpropyl)-1,2,3,4-tetrahydro-3-isoquinolinecarboxamide]
rodents
  fear and stress-induced responses: dose-dependently reduce fear and stress-induced responses
[1]
  κ, U69,593 Ke: 0.02 nM
[2]
  Ke value at the κ-opioid receptor: 0.02 nM
rats
  prevention of stress-induced cocaine reinstatement of self-administration: oral activity
mice
  antagonism of the antinociceptive activity of enadoline: oral activity
[3]
  intrinsic activity at the μ opioid receptor: none of the compounds displayed measurable intrinsic activity
κ-opioid receptor
  potency at blocking κ-opioid agonist-induced activity: more potent
[4]
  intrinsic activity at the δ opioid receptor: none of the compounds displayed measurable intrinsic activity
[5]
  intrinsic activity at the κ opioid receptor: none of the compounds displayed measurable intrinsic activity

## CCC(C)C(CN1CCC(C)(c2cccc(O)c2)C(C)C1)NC(=O)C1Cc2ccc(O)cc2CN1 (stereo not drawn) [Compound 8a]
[1]
  κ, U69,593 Ke: 0.03 nM
  κ, U69,593 Ke (nM): 0.03 ± 0.02^c nM
  δ/κ: 800
[2]
  Ke value at the κ-opioid receptor: 0.03 nM
  κ selectivity relative to the δ opioid receptor: 800 fold
  κ selectivity relative to the μ opioid receptor: 100 fold
[6]; [8]
  μ, DAMGO Ke (nM): 3 ± 1^c nM
[6]
  potency at μ receptors compared to 3: increased potency; also recorded: eight-fold increase in potency
[7]
  δ, DPDPE Ke (nM): 24 ± 4^c nM

## COc1ccc2c(c1)CNC(C(=O)NC(CN1CCC(C)(c3cccc(O)c3)C(C)C1)C(C)C)C2 (stereo not drawn) [Compound 8b]
[1]
  κ, U69,593 Ke: 0.06 nM
  κ, U69,593 Ke (nM): 0.06 ± 0.01^c nM
  δ/κ: 1970
  μ/κ: 857
[1]; compared with 3
  decrease in potency at the κ receptor relative to 3: 3 fold
[2]
  Ke value at the κ-opioid receptor: 0.06 nM
  fold less potent than 3 at the κ-opioid receptor: 3 fold
  κ selectivity relative to the δ opioid receptor: 1970 fold
  κ selectivity relative to the μ opioid receptor: 857 fold
[6]; [8]
  μ, DAMGO Ke (nM): 51.4 ± 15^c nM
[7]
  δ, DPDPE Ke (nM): 118 ± 45^c nM

## (3R)-7-Methoxy-N-[(1S,2S)-1-{[(3R,4R)-4-(3-hydroxyphenyl)-3,4-dimethylpiperidin-1-yl]}-2-methylbutanyl]-3-methyl-1,2,3,4-tetrahydroisoquinoline-3-carboxamide [Compound 8m]
[1]
  δ/κ: 5
  μ/κ: 5
[6]; [8]
  μ, DAMGO Ke: 17.5 ± 3.6 nM
[6]
  potency at μ receptors compared to 3: increased potency
[7]
  δ, DPDPE Ke: 18.7 ± 1.5 nM
